Active and inactive are the calls of the source.
Experiments:
[1] = target: Tyrosine-protein phosphatase non-receptor type 12 (Homo sapiens, UniProt Q05209); assay: SAR Selectivity Analysis of small molecule inhibitors of PEST using pCAP in a fluorescence assay. [Related pubchem assays (depositor defined):AID1779, AID1784, AID2135]; type: functional
[2] = target: T1, Dual specificity protein phosphatase 3 (Homo sapiens, UniProt P51452); assay: SAR VHR1 absorbance Assay for In Vitro dose response studies. [Related pubchem assays (depositor defined):AID1654, AID1661, AID1878, AID1992, AID2004]
[3] = target: T1, Dual specificity protein phosphatase 3; assay: SAR VHR1 Fluorescent Assay for In Vitro dose response studies. [Related pubchem assays (depositor defined):AID1654, AID1661, AID1878, AID1992, AID2004, AID2070, AID2085]; type: functional
[4] = target: T2, Tyrosine-protein phosphatase non-receptor type 22 (Homo sapiens, UniProt Q9Y2R2); assay: SAR LYP1 Fluorescent Assay using OMFP substrate for In Vitro dose response studies - Set 3. [Related pubchem assays (depositor defined):AID1779, AID1784, AID2140, AID2686]; type: functional
T2 sequence (Q9Y2R2 whole entry): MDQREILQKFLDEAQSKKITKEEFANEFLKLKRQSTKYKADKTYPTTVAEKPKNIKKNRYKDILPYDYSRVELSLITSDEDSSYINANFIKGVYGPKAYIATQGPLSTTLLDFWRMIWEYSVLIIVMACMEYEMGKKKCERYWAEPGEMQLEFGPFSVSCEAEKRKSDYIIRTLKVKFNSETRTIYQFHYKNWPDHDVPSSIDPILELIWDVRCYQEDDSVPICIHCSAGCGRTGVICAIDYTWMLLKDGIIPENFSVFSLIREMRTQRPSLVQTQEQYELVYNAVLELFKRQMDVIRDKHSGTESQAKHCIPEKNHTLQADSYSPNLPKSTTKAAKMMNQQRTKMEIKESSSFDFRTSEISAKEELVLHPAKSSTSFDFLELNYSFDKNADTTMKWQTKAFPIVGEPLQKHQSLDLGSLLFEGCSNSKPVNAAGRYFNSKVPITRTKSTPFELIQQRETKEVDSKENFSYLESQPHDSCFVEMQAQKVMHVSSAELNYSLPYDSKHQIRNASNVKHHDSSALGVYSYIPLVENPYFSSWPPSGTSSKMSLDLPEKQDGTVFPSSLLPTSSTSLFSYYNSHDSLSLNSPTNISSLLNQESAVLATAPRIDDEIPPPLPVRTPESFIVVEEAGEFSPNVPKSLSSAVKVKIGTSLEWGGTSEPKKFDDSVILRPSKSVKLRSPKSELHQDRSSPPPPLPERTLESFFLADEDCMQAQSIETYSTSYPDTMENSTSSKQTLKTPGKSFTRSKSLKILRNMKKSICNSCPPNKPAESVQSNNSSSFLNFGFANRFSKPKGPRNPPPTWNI

[5] = target: T1, Dual specificity protein phosphatase 3; assay: MOA VHR1 Fluorescent secondary assay for identification of redox-state modulating compounds. [Related pubchem assays (depositor defined):AID1654, AID1661, AID1878, AID1957]
[6] = target: T3, Tyrosine-protein phosphatase non-receptor type 7 (Homo sapiens, UniProt P35236); assay: redox-dependent HePTP inhibition, mechanism study, biochemical, fluorescence (AID 2068); type: functional
T3 sequence (P35236 whole entry): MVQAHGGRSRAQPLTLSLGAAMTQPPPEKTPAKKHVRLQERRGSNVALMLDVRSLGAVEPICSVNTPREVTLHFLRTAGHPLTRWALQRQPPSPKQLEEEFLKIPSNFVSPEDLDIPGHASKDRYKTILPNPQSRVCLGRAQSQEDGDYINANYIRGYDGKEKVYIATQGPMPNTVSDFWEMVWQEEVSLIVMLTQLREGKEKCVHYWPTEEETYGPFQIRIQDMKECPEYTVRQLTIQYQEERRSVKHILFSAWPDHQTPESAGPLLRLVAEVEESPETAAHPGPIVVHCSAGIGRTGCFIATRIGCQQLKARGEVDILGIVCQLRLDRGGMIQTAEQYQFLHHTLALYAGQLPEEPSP

[7] = target: T3, Tyrosine-protein phosphatase non-receptor type 7; assay: HePTP (PTPN7) phosphatase inhibitor potency, SAR follow-up, biochemical, set 2 (AID 449736); type: functional
[8] = target: T2, Tyrosine-protein phosphatase non-receptor type 22; assay: LYP (PTPN22) phosphatase inhibitor potency, SAR follow-up, biochemical, pCAP fluorogenic substrate, fluorescence, set 3 (AID 449727); type: functional
[9] = target: T4, Dual specificity protein phosphatase 6 (Rattus norvegicus, UniProt Q64346); type: functional;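 also: confirmatory in vitro dose-response testing of MKP-3 inhibition; recombinant His-tagged MKP-3 made in E. coli BL21 with OMFP substrate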
T4 sequence (Q64346 whole entry): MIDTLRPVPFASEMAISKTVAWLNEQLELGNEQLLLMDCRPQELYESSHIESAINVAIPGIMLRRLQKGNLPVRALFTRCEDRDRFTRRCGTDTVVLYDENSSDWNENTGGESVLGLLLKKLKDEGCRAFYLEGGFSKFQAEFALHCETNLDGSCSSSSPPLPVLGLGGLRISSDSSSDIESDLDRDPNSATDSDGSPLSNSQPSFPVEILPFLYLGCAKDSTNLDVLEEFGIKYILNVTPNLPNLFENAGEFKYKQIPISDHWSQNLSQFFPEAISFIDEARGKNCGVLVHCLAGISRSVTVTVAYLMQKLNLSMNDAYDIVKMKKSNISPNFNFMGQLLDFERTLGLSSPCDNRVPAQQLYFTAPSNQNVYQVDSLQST

[10] = target: T5, Small ubiquitin-related modifier 1 (Homo sapiens, UniProt P63165); assay: inhibitors of SUMO1 peptide binding, dose response, biochemical, fluorescence polarization, uHTS hits (AID 624382); type: functional; conditions: read-out: IC50_Mean
[11] = target: T6, Low molecular weight phosphotyrosine protein phosphatase (Homo sapiens, UniProt P24666); type: functional; conditions: read-out: IC50_Mean
T6 sequence (P24666 whole entry): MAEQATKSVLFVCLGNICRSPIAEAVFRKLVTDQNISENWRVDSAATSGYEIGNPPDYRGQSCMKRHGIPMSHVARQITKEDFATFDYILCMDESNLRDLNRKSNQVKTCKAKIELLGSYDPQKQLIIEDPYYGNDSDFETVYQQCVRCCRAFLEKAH

[12] = target: T5, Small ubiquitin-related modifier 1; assay: inhibitors of SUMO1 partner interactions, dose response, biochemical, FRET (AID 624383); type: functional; conditions: read-out: IC50_Mean
[13] = target: T6, Low molecular weight phosphotyrosine protein phosphatase; type: functional; conditions: read-out: IC50_Mean; remark: listed apart in the source
[14] = target: T2, Tyrosine-protein phosphatase non-receptor type 22; assay: LYP phosphatase inhibition for selectivity, dose response, selectivity assay for LMPTP inhibitor project, biochemical, fluorescence, LYP catalytic domain (AID 652006); type: functional; conditions: read-out: IC50_Mean
Trypsin = Trypsin (Sus scrofa, UniProt P00761); assay: porcine trypsin inhibitors, dose response, selectivity assay for Rce1 protease inhibitor project, biochemical, quenched peptide fluorescence, cherry-pick (AID 488789)
[15] = target: Metabotropic glutamate receptor 4 (Rattus norvegicus, UniProt P31423); assay: Modulation of the Metabotropic Glutamate Receptor mGluR4: Rat PAM Potency. [Related pubchem assays (depositor defined):AID2437, AID2807]; type: functional
Wee1-like protein kinase = Wee1-like protein kinase (Homo sapiens, UniProt P30291); assay: G2/M cell cycle arrest in HeLa, late-stage follow-up, mechanism study for Wee1 degradation inhibitor project, FACS, panel member Wee1 Degradation (AID 2088)
[16] = target: G2/mitotic-specific cyclin-B1 (Homo sapiens, UniProt P14635); assay: G2/M cell cycle arrest in HeLa, late-stage follow-up, mechanism study for Wee1 degradation inhibitor project, FACS, panel member Cyclin B Degradation (AID 2088)
Chain of G2/mitotic-specific cyclin-B1 (P14635 whole entry): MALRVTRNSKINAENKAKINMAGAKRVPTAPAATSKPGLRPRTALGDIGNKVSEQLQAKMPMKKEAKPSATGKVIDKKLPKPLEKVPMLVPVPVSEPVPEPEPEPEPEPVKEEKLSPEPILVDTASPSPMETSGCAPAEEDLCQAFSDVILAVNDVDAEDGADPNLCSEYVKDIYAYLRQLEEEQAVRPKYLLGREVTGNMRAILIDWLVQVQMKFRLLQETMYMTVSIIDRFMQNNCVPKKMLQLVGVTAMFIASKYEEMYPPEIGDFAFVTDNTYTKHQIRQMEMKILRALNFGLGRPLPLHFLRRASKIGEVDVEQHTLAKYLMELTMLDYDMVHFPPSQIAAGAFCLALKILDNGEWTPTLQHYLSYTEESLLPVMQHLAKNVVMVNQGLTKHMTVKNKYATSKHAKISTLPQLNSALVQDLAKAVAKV

T1 sequence (P51452 whole entry): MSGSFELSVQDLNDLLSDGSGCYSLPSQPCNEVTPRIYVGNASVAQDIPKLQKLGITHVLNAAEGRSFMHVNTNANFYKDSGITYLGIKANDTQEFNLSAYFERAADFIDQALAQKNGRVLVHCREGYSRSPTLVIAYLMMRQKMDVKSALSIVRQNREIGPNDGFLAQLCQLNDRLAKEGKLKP
T5 sequence (P63165 whole entry): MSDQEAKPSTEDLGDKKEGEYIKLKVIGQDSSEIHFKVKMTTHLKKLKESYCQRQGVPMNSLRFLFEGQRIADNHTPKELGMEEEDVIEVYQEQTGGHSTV
Chain of Metabotropic glutamate receptor 4 (P31423 whole entry): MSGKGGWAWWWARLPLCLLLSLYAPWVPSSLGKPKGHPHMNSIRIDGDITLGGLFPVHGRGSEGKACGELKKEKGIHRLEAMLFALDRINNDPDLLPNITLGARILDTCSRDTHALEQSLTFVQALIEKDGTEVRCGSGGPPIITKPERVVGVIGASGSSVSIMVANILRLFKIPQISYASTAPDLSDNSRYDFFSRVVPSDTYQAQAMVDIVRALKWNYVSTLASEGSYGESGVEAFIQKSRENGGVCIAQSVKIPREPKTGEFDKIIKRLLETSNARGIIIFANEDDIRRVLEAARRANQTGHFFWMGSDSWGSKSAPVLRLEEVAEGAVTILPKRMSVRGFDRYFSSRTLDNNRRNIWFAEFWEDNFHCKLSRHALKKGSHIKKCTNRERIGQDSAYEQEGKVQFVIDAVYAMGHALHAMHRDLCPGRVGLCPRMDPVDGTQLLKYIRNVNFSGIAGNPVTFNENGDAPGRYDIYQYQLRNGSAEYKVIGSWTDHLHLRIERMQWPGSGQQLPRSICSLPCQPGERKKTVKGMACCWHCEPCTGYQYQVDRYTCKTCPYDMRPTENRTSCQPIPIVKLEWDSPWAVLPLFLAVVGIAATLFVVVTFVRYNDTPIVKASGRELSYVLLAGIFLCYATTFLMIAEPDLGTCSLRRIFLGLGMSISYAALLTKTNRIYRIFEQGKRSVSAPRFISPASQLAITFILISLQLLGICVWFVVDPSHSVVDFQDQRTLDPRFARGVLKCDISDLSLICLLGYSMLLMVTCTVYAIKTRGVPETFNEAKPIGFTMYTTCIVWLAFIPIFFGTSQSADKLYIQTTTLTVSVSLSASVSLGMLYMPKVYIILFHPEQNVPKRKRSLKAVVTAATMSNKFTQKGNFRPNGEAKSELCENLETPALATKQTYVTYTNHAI
Chain of Tyrosine-protein phosphatase non-receptor type 12 (Q05209 whole entry): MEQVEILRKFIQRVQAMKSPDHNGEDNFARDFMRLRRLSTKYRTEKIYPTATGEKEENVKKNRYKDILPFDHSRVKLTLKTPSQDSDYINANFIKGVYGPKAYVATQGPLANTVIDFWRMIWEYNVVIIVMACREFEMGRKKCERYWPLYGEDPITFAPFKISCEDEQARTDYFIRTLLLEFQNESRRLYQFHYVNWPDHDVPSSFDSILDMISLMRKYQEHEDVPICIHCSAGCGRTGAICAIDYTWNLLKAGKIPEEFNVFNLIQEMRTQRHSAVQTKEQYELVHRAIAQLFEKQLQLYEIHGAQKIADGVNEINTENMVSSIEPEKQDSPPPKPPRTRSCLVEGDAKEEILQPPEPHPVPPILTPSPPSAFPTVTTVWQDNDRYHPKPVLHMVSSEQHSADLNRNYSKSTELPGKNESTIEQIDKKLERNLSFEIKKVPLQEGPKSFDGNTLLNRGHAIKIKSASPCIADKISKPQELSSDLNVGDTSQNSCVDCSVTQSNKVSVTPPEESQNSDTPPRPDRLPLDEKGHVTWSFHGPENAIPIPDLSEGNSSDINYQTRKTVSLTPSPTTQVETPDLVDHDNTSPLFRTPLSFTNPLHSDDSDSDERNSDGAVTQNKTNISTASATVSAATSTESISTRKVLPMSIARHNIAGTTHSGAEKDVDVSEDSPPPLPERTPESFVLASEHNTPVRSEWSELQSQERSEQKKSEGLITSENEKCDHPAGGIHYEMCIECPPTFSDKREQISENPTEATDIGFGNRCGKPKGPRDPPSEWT
Chain of Trypsin (P00761 whole entry): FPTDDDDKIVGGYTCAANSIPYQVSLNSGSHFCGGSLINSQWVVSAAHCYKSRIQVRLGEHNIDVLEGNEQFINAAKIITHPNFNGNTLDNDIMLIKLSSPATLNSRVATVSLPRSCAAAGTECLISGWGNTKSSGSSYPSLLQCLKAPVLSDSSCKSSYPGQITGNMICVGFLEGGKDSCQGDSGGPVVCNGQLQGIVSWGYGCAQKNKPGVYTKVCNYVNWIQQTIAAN
Chain of Wee1-like protein kinase (P30291 whole entry): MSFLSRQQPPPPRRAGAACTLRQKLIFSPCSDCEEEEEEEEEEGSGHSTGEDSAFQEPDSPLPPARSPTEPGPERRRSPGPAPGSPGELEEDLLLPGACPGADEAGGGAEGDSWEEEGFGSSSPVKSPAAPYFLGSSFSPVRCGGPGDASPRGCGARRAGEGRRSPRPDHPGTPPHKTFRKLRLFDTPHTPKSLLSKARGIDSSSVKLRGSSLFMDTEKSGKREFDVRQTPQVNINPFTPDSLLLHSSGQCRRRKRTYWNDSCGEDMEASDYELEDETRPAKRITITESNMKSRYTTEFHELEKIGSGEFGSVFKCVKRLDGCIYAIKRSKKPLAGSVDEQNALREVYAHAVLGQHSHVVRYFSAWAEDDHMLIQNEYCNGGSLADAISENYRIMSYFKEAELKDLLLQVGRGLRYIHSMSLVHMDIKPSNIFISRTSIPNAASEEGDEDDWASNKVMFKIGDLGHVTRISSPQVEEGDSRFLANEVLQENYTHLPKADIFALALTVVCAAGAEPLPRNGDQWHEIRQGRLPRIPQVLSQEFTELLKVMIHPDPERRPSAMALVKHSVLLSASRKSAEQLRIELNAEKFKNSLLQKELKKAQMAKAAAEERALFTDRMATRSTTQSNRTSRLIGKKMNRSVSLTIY

## CCOC(=O)C1=C(C)N=c2sc(=Cc3ccc(OCC(=O)O)cc3)c(=O)n2C1c1ccc(SC)cc1 (stereo not drawn)
[1]
  IC50: 2.52 µM (active)
[2]
  IC50: 3.14 µM (active)
[3]
  IC50: 7.7 µM (active)
[4]
  IC50: 5.06 µM (active)
[5]
  IC50: 2.01 µM (active)
[6]
  IC50: 537 nM (active)
[7]
  IC50: 684 nM (active)
[8]
  IC50: 5.14 µM (active)
[9]
  IC50: 18.9 µM (active)
[10]
  IC50: > 66.6 µM (inactive)
[11]
  IC50: 52.8 µM (inactive)
[12]
  IC50: 9.68 µM (active)
[13]
  IC50: 14.6 µM (active)
[14]
  IC50: 16.2 µM (active)

## Cc1ccc(O)c(CNc2cnc3ccccc3c2)c1
Trypsin
  AC50: 12.8 µM (active)

## CC1(c2ccccc2)CC(=O)N(c2ccc(NC(=O)c3ccccn3)cc2Cl)C1=O (stereo not drawn)
[15]
  EC50: 540 nM (active)

## Cc1cc(=O)[nH]c(-n2nc(C)cc2NC(=O)CCc2ccccc2)n1
Wee1-like protein kinase
  EC50: > 16.6 µM (active)
[16]
  EC50: > 49.7 µM (inactive)
